The source of these data is patent US4985430A, “9-acylamino-tetrahydroacridine derivatives and memory enhancing agent containing said derivative as active ingredient” (priority 1987, dated 1991).

Structures can show the parent of a compound that is named as a salt.

Series [1] in a line: Acute toxicity test, oral, mouse. To be noted: in vivo. As to the method: The compound of the present invention was orally administered to a mouse and acute toxicity value was measured.
The subject of series [2] is Na^+ dependent high-affinity choline uptake (HACU) of AF64A-treated rat hippocampus. In words: Na+ dependent high-affinity choline uptake (HACU) in crude synaptosomal fraction of AF64A-treated rat hippocampus. To be noted: for Improved ratio (% based on Control): HACU, AF64A-treated rat hippocampus synaptosomal fraction, [3H]choline 1 μM, 37° C. It is filed as biochemical. How it is done:
Effects on Na^+ dependent high-affinity choline uptake (HACU) of AF64A-treated rat hippocampus
According to the method of Fischer et al. [J. Pharm. Exper. Ther., Vol. 222, p. 140 (1982)], AF64A was prepared from AF64. AF64A (1.5 nmole/1.5 μl/side) was injected into rat's both ventricles. After one week, subjecting decapitation, only hippocampus was taken out. It was homogenized with 0.32M of sucrose, centrifuged for 10 minutes at 1000 g, and the supernatant was further centrifuged for 20 minutes at 20,000 g to give crude synaptosomal fraction. The crude synaptosomal fraction and medicament were subjected to incubation at 37° C. for 30 minutes, and after addition of [^3 H]choline (1 μM), they were further subjected to incubation at 37° C. for 10 minutes.
As a control, the crude synaptosomal fraction was subjected to incubation at 37° C. for 30 minutes, and after addition of choline [^3 H]choline (1 μM), it was further subjected to incubation at 37° C. for 10 minutes to use. The reaction was stopped by subjecting filtration on Whatman GF/B filter. Radioactivity on the filter was measured by a liquid scintillation counter and it was made as the HACU amount. An amount of protein was determined according to the method of Bradford. [Analytical Biochemistry, Vol. 72, p. 248 (1976)].

Series [3] has as its system human Alzheimer's disease. As to conditions: in combination with use of lecithin; Summers, N. Engl. J. Med. 315, 1241 (1986); cited from earlier work.

Consider `Nc1c2c(nc3ccccc13)CCCC2` [9-Amino-1,2,3,4-tetrahydroacridine, reference compound], for which the LD50 in series [1] is 67 mg/kg. In addition, the “Improved ratio (% based on Control)” value in series [2] (10^-4 M) was -73%; in series [2] (10^-5 M), -11%; in series [2] (10^-6 M), 8%; in series [2] (10^-7 M), 5%; in series [2] (10^-8 M) it was 2%. Besides, the “high affinity-choline uptake in hippocampus synaptosome of AF64A-injected rat (activation, in words)” value in series [2] (AF64A injected in cerebral ventricles) is given as “could not be found out”. Besides, the “effectiveness in human Alzheimer's disease” value in series [3] is listed as “effective to human Alzheimer's disease”.
In series [1], `CCCC(=O)Nc1c2c(nc3ccccc13)CCCC2` [Example 1, N-(1,2,3,4-tetrahydroacridin-9-yl)butanamide] had a median lethal dose (LD50) of 1000 mg/kg. Also, the “Improved ratio (% based on Control)” value was 15% in series [2] (10^-4 M); 31% in series [2] (10^-5 M); 28% in series [2] (10^-6 M); 13% in series [2] (10^-7 M); 20% in series [2] (10^-8 M).
`CC(C)C(=O)Nc1c2c(nc3ccccc13)CCCC2` [Example 3]: the “Improved ratio (% based on Control)” value turned out to be 21% in series [2] (10^-4 M); 19% in series [2] (10^-5 M); 11% in series [2] (10^-6 M); 16% in series [2] (10^-7 M); 13% in series [2] (10^-8 M).
In the same order, the values of `CCCCC(=O)Nc1c2c(nc3ccccc13)CCCC2` [Example 4] are 5%, 29%, 3%, 5% and 4%.
`O=C(CN1CCCC1=O)Nc1c2c(nc3ccccc13)CCCC2` [Example 14, 2-(2-oxopyrrolidin-1-yl)-N-(1,2,3,4-tetrahydroacidin-9-yl)acetamide hydrochloride] yielded an LD50 in series [1] of 2300 mg/kg. Also, the “Improved ratio (% based on Control)” value came out at 21% in series [2] (10^-4 M); 17% in series [2] (10^-5 M); 16% in series [2] (10^-6 M); 19% in series [2] (10^-7 M); 12% in series [2] (10^-8 M).
Turning to `Cc1ccc2nc3c(c(NC(=O)CN4CCCC4=O)c2c1)CCCC3` [Example 15], the “Improved ratio (% based on Control)” value in series [2] (10^-5 M) is -2%; in series [2] (10^-6 M), 28%; in series [2] (10^-7 M), -5%; in series [2] (10^-8 M) it was 3%.
As to `CN1CCc2nc3ccccc3c(NC(=O)CN3CCCC3=O)c2C1` [Example 20], the “Improved ratio (% based on Control)” value came to 28% in series [2] (10^-4 M); 9% in series [2] (10^-5 M); 23% in series [2] (10^-6 M); 21% in series [2] (10^-7 M); 10% in series [2] (10^-8 M).
In the same order, the values of `O=C(CN1CCCC1=O)Nc1c2c(nc3ccccc13)CCN(Cc1ccccc1)C2` [Example 21] are 18%, 32%, 19%, 11% and 10%.
For `O=C(CN1CCCC1=O)Nc1c2c(nc3ccccc13)C1CCN2CC1` [Example 22], the “Improved ratio (% based on Control)” value was found to be 4% in series [2] (10^-4 M); 30% in series [2] (10^-5 M); 10% in series [2] (10^-6 M); 16% in series [2] (10^-7 M); 13% in series [2] (10^-8 M).
For `O=C(CN1CCCC1=O)Nc1c2c(nc3sccc13)CCCC2` [Example 27] the same measures were 9%, 41%, 25%, 19% and 5%.
In the same order, the values of `O=C(CN1C(=O)CCC1=O)Nc1c2c(nc3ccccc13)CCCC2` [Example 35] are 26%, 27%, 15%, 26% and 2%.
As for `O=C1CN(CC(=O)Nc2c3c(nc4ccccc24)CCCC3)C(=O)CN1` [Example 37], the LD50 in series [1] amounted to 2100 mg/kg. Moreover, the “Improved ratio (% based on Control)” value is given as 39% in series [2] (10^-4 M); 34% in series [2] (10^-5 M); 27% in series [2] (10^-6 M); 9% in series [2] (10^-7 M); 14% in series [2] (10^-8 M).
In the case of `CNCC(=O)Nc1c2c(nc3ccccc13)CCCC2` [Example 39, 9-[(2-methylamino)acetyl-amino]-1,2,3,4-tetrahydroacridine], the “Improved ratio (% based on Control)” value in series [2] (10^-4 M) is recorded as -11%; in series [2] (10^-5 M), 24%; in series [2] (10^-6 M), 16%; in series [2] (10^-7 M), 8%; in series [2] (10^-8 M) it was 5%.
For the compound `CCOC(=O)CNCC(=O)Nc1c2c(nc3ccccc13)CCCC2` [Example 40], the “Improved ratio (% based on Control)” value in series [2] (10^-4 M) worked out at 3%; in series [2] (10^-5 M), 20%; in series [2] (10^-6 M) it was 14%; in series [2] (10^-7 M) it was 18%; in series [2] (10^-8 M), 8%.
For `O=C(Cn1ccnc1)Nc1c2c(nc3ccccc13)CCCC2` [Example 41] the same measures were 20%, 46%, 18%, 5% and 5%.
For `CC(=O)N(C)CC(=O)Nc1c2c(nc3ccccc13)CCCC2` [Example 42] the same measures were 11%, 29%, 30%, 14% and 11%.
For `NC(=O)NCC(=O)Nc1c2c(nc3ccccc13)CCCC2` [Example 46] the same measures were 27%, 13%, 28%, 11% and -8%.
With `CNC(=O)N1CCc2nc3ccccc3c(NC(=O)CN3CCCC3=O)c2C1` [Example 50], the “Improved ratio (% based on Control)” value in series [2] (10^-5 M) is reported as 27%; in series [2] (10^-6 M) it was 35%; in series [2] (10^-7 M), 20%; in series [2] (10^-8 M), 4%.
In the case of `CCCC(=O)Nc1c2c(nc3ccccc13)CCC(O)C2` (stereo not drawn) [Example 53, N-(1,2,3,4-tetrahydroacridin-2-ol-9-yl)butanamide], the “Improved ratio (% based on Control)” value in series [2] (10^-4 M) is reported as 14%; in series [2] (10^-5 M), 15%; in series [2] (10^-6 M) it was 23%; in series [2] (10^-7 M) it was 18%; in series [2] (10^-8 M), 14%.
